Here are results for 22 molecules from US6720342B2, “Heterocyclic compounds and their preparation and use” (Novo Nordisk A/S, priority 1996, dated 2004).

In test [1] the target is muscarinic acetylcholine receptors. Description: Inhibition of specific binding of 3H-Oxotremorine-M (3H-Oxo) to rat cortex membranes. Conditions: rat cortex homogenate, 1.0 nM 3H-Oxotremorine, 30 min at 25° C. The text has this: The pharmacological properties of the compounds of the invention can be illustrated by determining their capability to inhibit the specific binding of ^3H-Oxotremorine-M (^3H-Oxo). Birdsdall N. J. M., Hulme E. C., and Burgen A. S. V. (1980). “The Character of Muscarinic Receptors in Different Regions of the Rat Brain”. Proc. Roy. Soc. London (Series B) 207, 1.
^3H-Oxo labels muscarinic receptor in the CNS (with a preference for agonist domains of the receptors). Three different sites are labelled by ^3H-Oxo. […] Using the present experimental conditions only the high and medium affinity sites are determined.
The inhibitory effects of compounds on ^3H-Oxo binding reflects the affinity for muscarinic acetylcholine receptors.
All preparations are performed at 0-4° C. unless otherwise indicated. Fresh cortex (0.1-1 g) from male Wistar rats (150-250 g) is homogenized for 5-10 s in 10 ml 20 mM Hepes pH: 7.4, with an Ultra-Turrax homogenizer. The homogenizer is rinsed with 10 ml of buffer and the combined suspension centrifuged for 15 min. at 40,000×g. The pellet is washed three times with buffer. In each step the pellet is homogenized as before in 2×10 ml of buffer and centrifuged for 10 min. at 40,000×g.
The final pellet is homogenized in 20 mM Hepes pH: 7.4 (100 ml per g of original tissue) and used for binding assay. Aliquots of 0.5 ml is added 25 μl of test solution and 25 μl of ^3H-Oxotremorine (1.0 nM, final concentration) mixed and incubated for 30 min. at 25° C. Non-specific binding is determined in triplicate using arecoline (1 μg/ml, final concentration) as the test substance. After incubation samples are added 5 ml of ice-cold buffer and poured directly onto Whatman GF/C glass fiber filters under suction and immediately washed 2 times with 5 ml of ice-cold buffer. The amount of radioactivity on the filters are determined by conventional liquid scintillation counting. Specific binding is total binding minus non specific binding.
Test substances are dissolved in 10 ml water (if necessary heated on a steambath for less than 5 min.) at a concentration of 2.2 mg/ml. 25-75% inhibition of specific binding must be obtained before calculation of IC50.
The test value will be given as IC50 (the concentration (nM) of the test substance which inhibits the specific binding of ^3H-Oxo by 50%).
(§1) IC50=(applied test substance concentration)×(Cx/Co−Cx)nM
(§2) where Co is specific binding in control assays and Cx is the specific binding in the test assay. (The calculations assume normal mass-action kinetics).

Test [2] addresses T1, muscarinic receptors (M1-site, pirenzepine sensitive site) (Rattus norvegicus, UniProt P08482).
T1 construct: Fresh cortex (0.1-1 g) from male Wistar rats (150-200 g) is homogenized; from tissue; host or cells: rat (male Wistar) cerebral cortex membranes
T1 sequence (P08482 1-460): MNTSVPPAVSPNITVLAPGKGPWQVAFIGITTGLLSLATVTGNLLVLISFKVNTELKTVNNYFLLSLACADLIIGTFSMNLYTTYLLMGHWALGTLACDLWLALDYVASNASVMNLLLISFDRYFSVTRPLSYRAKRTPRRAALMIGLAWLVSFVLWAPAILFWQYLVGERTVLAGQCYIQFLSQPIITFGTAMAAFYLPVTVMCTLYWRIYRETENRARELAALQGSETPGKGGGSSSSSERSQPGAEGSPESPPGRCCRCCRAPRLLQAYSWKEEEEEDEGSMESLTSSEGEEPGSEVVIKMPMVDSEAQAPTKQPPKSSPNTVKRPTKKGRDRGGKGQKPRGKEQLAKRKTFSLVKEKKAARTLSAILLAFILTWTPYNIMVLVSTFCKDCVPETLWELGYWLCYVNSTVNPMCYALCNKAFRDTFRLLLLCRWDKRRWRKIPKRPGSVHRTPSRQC
As to the kind of experiment: Inhibition of 3H-PRZ (pirenzepine, [N-methyl-3H]) binding to rat cerebral cortex membranes. The settings on record: 1.0 nM 3H-Pirenzepine, 60 min at 20° C. On the procedure:
Furthermore the pharmacological properties of the compounds of the invention can also be illustrated by determining their capability to inhibit ^3H-PRZ (pirenzepine, [N-methyl-^3H]) binding to rat cerebral cortex membranes. Pirenzepine binds selectively to subtype of muscarinic receptors. Historically the type is named the M1-site, whereas pirenzepine sensitive site would be more appropriate. Although selective for M1-sites pirenzepine also interact with M2-sites.
All preparations are performed at 0-4° C. unless otherwise indicated. Fresh cortex (0.1-1 g) from male Wistar rats (150-200 g) is homogenized for 5-10 s. in 10 ml 20 mM Hepes pH: 7.4, with an Ultra-Turrax homogenizer. The homogenizer is rinsed with 2×10 ml of buffer and the combined suspension centrifuged for 15 min at 40,000×g. The pellet is washed three times with buffer. In each step the pellet is homogenized as before in 3×10 ml of buffer and centrifuged for 10 min at 40,000×g.
The final pellet is homogenized in 20 mM Hepes pH: 7.4 (100 ml per g of original tissue) and used for binding assay. Aliquots of 0.5 ml is added 20 μl of test solution and 25 μl of ^3H-Pirenzepine (1.0 nM, final conc.), mixed and incubated for 60 min at 20° C. Non-specific binding is determined in triplicate using atropine (1 μg/ml, final conc.) as the test substance. After incubation samples are added 5 ml of ice-cold buffer and poured directly onto Whatman GF/C glass fiber filters under suction and immediately washed 2 times with 5 ml of ice-cold buffer. The amount of radioactivity on the filters are determined by conventional liquid scintillation counting. Specific binding is total binding minus non-specific binding.
Test substances are dissolved in 10 ml water, at a concentration of 0.22 mg/ml. 25-75% inhibition of specific binding must be obtained before calculation of IC50.
The test value will be given as IC50 (the concentration (nM) of the test substance which inhibits the specific binding of ^3H-PRZ by 50%).
as §1, §2

Structures can show the parent of a compound that is named as a salt.

For `COCCOc1nsnc1OC1CN2CCC1C2` (stereo not drawn) [Compound 13, Endo 3-(3-methoxyethoxy-1,2,5-thiadiazol-4-yloxy)-1-azabicyclo[2.2.1]heptane, oxalate], the IC50 in test [1] worked out at 4.3 nM; in test [2], 44 nM. `C(#Cc1ccoc1)COc1nsnc1OC1CN2CCC1C2` (stereo not drawn) [Compound 26, Endo 3-(3-(3-(3-furyl)-2-propyn-1-yloxy)-1,2,5-thiadiazol-4-yloxy)-1-azabicyclo[2.2.1]heptane, oxalate]: the results for the IC50 in test [1] and in test [2] were 1.3 nM and 3.9 nM, respectively.

For `CCCCSc1nsnc1OC1CN2CCC1C2` (stereo not drawn) [Compound 1, Endo 3-(3-butylthio-1,2,5-thiadiazol-4-yloxy)-1-azabicyclo[2.2.1]heptane, oxalate], the IC50 worked out at 1.6 nM in test [1] and 0.14 nM in test [2]. Taken in the same sequence, the figures for `CC#CCOc1nsnc1OC1CN2CCC1C2` (stereo not drawn) [Compound 11, Endo 3-(3-[2-butynyl-1-oxy]-1,2,5-thiadiazol-4-yloxy)-1-azabicyclo[2.2.1]heptane, oxalate] were 2.1 nM and 23 nM.

`FC(F)(F)C(F)(F)C(F)(F)COc1nsnc1OC1CN2CCC1C2` (stereo not drawn) [Compound 27, Endo 3-(3-(2,2,3,3,4,4,4-heptafluorobutyl-1-oxy)-1,2,5-thiadiazol-4-yloxy)-1-azabicyclo[2.2.1]heptane, oxalate]: the half-inhibitory concentration (IC50) was 8.3 nM in test [1] and 5.3 nM in test [2]. Taken in the same sequence, the figures for `FC(F)(F)CCCOc1nsnc1OC1CN2CCC1C2` (stereo not drawn) [Compound 15, Endo 3-(3-[4,4,4-trifluorobutyl-1-oxy]-1,2,5-thiadiazol-4-yloxy)-1-azabicyclo[2.2.1]heptane, oxalate] were 18 nM and 14 nM. Taken in the same sequence, the figures for `CCC(C#Cc1cccc(OC)c1)Oc1nsnc1OC1CN2CCC1C2` (stereo not drawn) [Compound 19, Endo 3-(3-[1-(3-methoxyphenyl)-1-pentyn-3-yloxy]-1,2,5-thiadiazol-4-yloxy)-1-azabicyclo[2.2.1]heptane, oxalate] were 126 nM and 53 nM. In test [2], `COc1cccc(C#CCOc2nsnc2OC2CN3CCC2C3)c1` (stereo not drawn) [Compound 6, Endo 3-(3-[3-(3-methoxyphenyl)-2-propynyl-1-oxy]-1,2,5-thiadiazol-4-yloxy)-1-azabicyclo[2.2.1]heptane, oxalate] displayed an IC50 of 17 nM. That is a double-digit nanomolar value. Take `C(#Cc1ccsc1)COc1nsnc1OC1CN2CCC1C2` (stereo not drawn) [Compound 36, Endo 3-(3-[3-(3-thienyl)-2-propyn-1-yloxy]-1,2,5-thiadiazol-4-yloxy)-1-azabicyclo[2.2.1]heptane, oxalate]: the IC50 in test [1] came to 1 nM; in test [2], 4.7 nM. In the same order, the values of `CCCSc1nsnc1OC1CN2CCC1C2` (stereo not drawn) [Compound 2, Endo 3-(3-propylthio-1,2,5-thiadiazol-4-yloxy)-1-azabicyclo[2.2.1]heptane, oxalate] are 1.4 nM and 4.2 nM. In the same order, the values of `CC(C#Cc1ccc(F)cc1)=CCOc1nsnc1OC1CN2CCC1C2` (stereo not drawn) [Compound 21, Endo (Z)-3-(3-(5-(4-fluorophenyl)-3-methyl-2-penten-4-yn-1-yloxy)-1,2,5-thiadiazol-4-yloxy)-1-azabicyclo[2.2.1]heptane] are 302 nM and 100 nM. In the same order, the values of `Clc1ccc(C#CCOc2nsnc2OC2CN3CCC2C3)cc1` (stereo not drawn) [Compound 18, Endo 3-(3-[3-(4-chlorophenyl)-2-propynyl-1-oxy]-1,2,5-thiadiazol-4-yloxy)-1-azabicyclo[2.2.1]heptane, oxalate] are 79 nM and 12 nM. On to `N#Cc1ccc(CSc2nsnc2OC2CN3CCC2C3)cc1` (stereo not drawn) [Compound 31, Endo 3-(3-[4-cyanobenzylthio]-1,2,5-thiadiazol-4-yloxy)-1-azabicyclo-[2.2.1]heptane, oxalate], for which the IC50 in test [2] was 23 nM. In the case of `CC(C)=CCOc1nsnc1OC1CN2CCC1C2` (stereo not drawn) [Compound 7, Endo 3-(3-[3-methyl-2-butenyl-1-oxy]-1,2,5-thiadiazol-4-yloxy)-1-azabicyclo[2.2.1]heptane, oxalate], the results for the 50% inhibitory concentration (IC50) in test [1] and in test [2] were 10 nM and 24 nM, respectively. In test [2], `FC(F)(F)CCCSc1nsnc1OC1CN2CCC1C2` (stereo not drawn) [Compound 30, Endo 3-(3-(4,4,4-trifluorobutylthio)-1,2,5-thiadiazol-4-yloxy)-1-azabicyclo-[2.2.1]heptane, oxalate] came in with an IC50 of 3.4 nM.

Turning to `COc1cccc(C#CC(C)Oc2nsnc2OC2CN3CCC2C3)c1` (stereo not drawn) [Compound 17, Endo 3-(3-[4-(3-methoxyphenyl)-3-butyn-2-yloxy]-1,2,5-thiadiazol-4-yloxy)-1-azabicyclo[2.2.1]heptane, oxalate], the IC50 was 72 nM in test [1] and 48 nM in test [2].

Turning to `Fc1ccc(C#CCOc2nsnc2OC2CN3CCC2C3)cc1` (stereo not drawn) [Compound 4, Endo 3-(3-[3-(4-fluorophenyl)-2-propynyl-1-oxy]-1,2,5-thiadiazol-4-yloxy)-1-azabicyclo[2.2.1]heptane, oxalate], the IC50 in test [1] worked out at 7.9 nM; in test [2] it was 8.3 nM. For the molecule `FC(F)(F)c1cccc(C#CCOc2nsnc2OC2CN3CCC2C3)c1` (stereo not drawn) [Compound 20, Endo 3-(3-(3-(3-trifluoromethylphenyl)-2-propynyl-1-oxy)-1,2,5-thiadiazol-4-yloxy)-1-azabicyclo[2.2.1]heptane, oxalate], in test [2], the IC50 came out at 11 nM. Regarding `FC(F)(F)Oc1ccc(COc2nsnc2OC2CN3CCC2C3)cc1` (stereo not drawn) [Compound 14, Endo 3-(3-[4-trifluoromethoxybenzyloxy]-1,2,5-thiadiazol-4-yloxy)-1-azabicyclo[2.2.1]heptane, oxalate], the IC50 in test [1] was determined as 49 nM; in test [2], 32 nM. `Fc1cccc(C#CCOc2nsnc2OC2CN3CCC2C3)c1` (stereo not drawn) [Compound 28, Endo 3-(3-(3-(3-fluorophenyl)-2-propyn-1-yloxy)-1,2,5-thiadiazol-4-yloxy-1-azabicyclo[2.2.1]heptane, oxalate] returned an IC50 in test [1] of 5.5 nM. In test [2], `C1CC(COc2nsnc2OC2CN3CCC2C3)C1` (stereo not drawn) [Compound 41, Endo 3-(3-cyclobutylmethyloxy-1,2,5-thiadiazol-4-yloxy)-1-azabicyclo-[2.2.1]heptane, oxalate] yielded a 50% inhibitory concentration (IC50) of 9.2 nM. In other words, the single-digit nanomolar range.

The molecule `FCCSc1nsnc1OC1CN2CCC1C2` (stereo not drawn) [Compound 34, Endo 3-(3-[2-fluoroethyl-1-thio]-1,2,5-thiadiazol-4-yloxy)-1-azabicyclo-[2.2.1]heptane, oxalate] yielded an IC50 in test [2] of 31 nM.

As a reminder, the IC50 is the midpoint of a concentration-inhibition curve. Read a low IC50 as inhibition by little substance.
